Measured values taken from ChEMBL document CHEMBL4699446, “Hydroxy-neo-Clerodanes and 5,10-seco-neo-Clerodanes from Salvia decora” (J Nat Prod, 2020).
Activity calls are given as the source filed them. No cut-off for these calls is given here.

Key:
[1] = biological target: T1, Tyrosine-protein phosphatase non-receptor type 1 (Homo sapiens) (UniProt P18031); assay: Binding affinity to human PTP1B (1 to 405 residues) at 1:2 protein-ligand ratio
T1 sequence (whole entry): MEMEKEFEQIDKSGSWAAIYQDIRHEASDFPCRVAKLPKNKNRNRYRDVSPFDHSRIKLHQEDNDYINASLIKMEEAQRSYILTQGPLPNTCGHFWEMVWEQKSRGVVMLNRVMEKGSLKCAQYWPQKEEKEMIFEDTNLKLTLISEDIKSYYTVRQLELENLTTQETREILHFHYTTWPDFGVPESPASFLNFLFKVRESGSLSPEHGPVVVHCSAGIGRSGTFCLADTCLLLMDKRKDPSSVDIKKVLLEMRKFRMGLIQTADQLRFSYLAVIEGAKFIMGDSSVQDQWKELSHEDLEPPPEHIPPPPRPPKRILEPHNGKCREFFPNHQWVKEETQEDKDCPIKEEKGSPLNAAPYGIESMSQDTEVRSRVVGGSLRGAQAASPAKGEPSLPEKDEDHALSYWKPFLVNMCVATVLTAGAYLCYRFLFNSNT

[2] = biological target: T1, Tyrosine-protein phosphatase non-receptor type 1 (Homo sapiens)
Description: Binding affinity to wild type human HIS6-tagged PTP1B (1 to 400 residues) expressed in Escherichia coli Rosetta (DE3) pLysS by tryptophan-tyrosine residues based spectrometric method

[3] = biological target: T1, Tyrosine-protein phosphatase non-receptor type 1 (Homo sapiens); assay: Inhibition of wild type human HIS6-tagged PTP1B (1 to 400 residues) expressed in Escherichia coli Rosetta (DE3) pLysS cells using p-NPP substrate at 0.38 to 1 mM preincubated for 10 mins followed dby substrate addition and measured after 20 mins relative to control; details: dose mM 0.38-1, time 30.0 min
[4] = Inhibition of Saccharomyces cerevisiae alpha-glucosidase using pNPG as substrate preincubated for 10 mins followed by substrate addition after 20 mins

SMILES	Ka [1]	Ka [2]	inhibition [3]	IC50 [4] [µM]
CC(C)[C@@H](CC[C@@H](C)[C@H]1CC[C@H]2[C@@H]3[C@H](O)C[C@H]4C[C@@H](NCCCNCCCCNCCCN)CC[C@]4(C)[C@H]3CC[C@]12C)OS(=O)(=O)O	3.3 10^5/M			
C[C@H]1[C@H](C)CC[C@]2(C(=O)O)CC[C@]3(C)C(=CC[C@@H]4[C@@]5(C)CC[C@H](O)C(C)(C)[C@@H]5CC[C@]43C)[C@H]12 [URSOLIC ACID]		1.3 10^4/M	50%	7.5
CC(=O)O[C@H]1CC2=C(/C=C\C=C\[C@@]3(C)C[C@H](c4ccoc4)OC(=O)[C@@H]13)C(=O)OC2			Active	
